Results on 39 compounds are retold here after ChEMBL document CHEMBL3351457, “Design and synthesis of 8-hydroxyquinoline-based radioprotective agents” (Bioorg Med Chem, 2014).

Data set [1] is described as follows: Stability of the compound assessed as hydrolysis at 37 degC after 18 hrs. Format: physicochemical.
For data set [2], the system named is MOLT-4. Nature of the data set: Cytotoxicity against human MOLT4 cells at 200 to 300 uM after 18 hrs by erythrosine B dye-exclusion test. Format: cell-based. The conditions noted are these: molt-4, 18 h.
Data set [3] deals with MOLT-4. Kind of data set: Cytotoxicity against human MOLT4 cells at 100 to 400 uM after 18 hrs by erythrosine B dye-exclusion test. The note with it: molt-4, 18 h. The format is cell-based.
Data set [4] relates to MOLT-4. Nature of the data set: Inhibition of apoptosis in gamma-irradiated human MOLT4 cells preincubated for 1 hr at 100 to 400 uM before gamma-irradiation measured after 18 hrs by erythrosine B dye-exclusion test. Format: functional, cell-based.
Data set [5] deals with MOLT-4. Nature of the data set: Radioprotective activity against gamma-irradiated human MOLT4 cells preincubated for 1 hr at <50 uM before gamma-irradiation measured after 18 hrs by erythrosine B dye-exclusion test. Format: functional, cell-based.
The subject of data set [6] is MOLT-4. Nature of the data set: Radioprotective activity against gamma-irradiated human MOLT4 cells preincubated for 1 hr at 100 to 400 uM before gamma-irradiation measured after 18 hrs by erythrosine B dye-exclusion test. Format: functional, cell-based.
Data set [7] addresses Cellular tumor antigen p53 (Homo sapiens) (UniProt P04637). Nature of the data set: Binding affinity to recombinant FLAG-p53 (unknown origin) assessed as confirmational change measured after 12 hrs by CD spectroscopy in presence of zinc(II) chelators.
The target is the same in data set [8]. Kind of data set: Inhibition of recombinant FLAG-p53 (unknown origin) binding to FITC-labeled double-stranded oligonucleotide measured after 3 hrs by EMSA in presence of zinc(II) chelators. For orientation: In EMSA bound probe runs differently from free probe, usually more slowly.
Data set [9] has as its system Jurkat. Nature of the data set: Cytotoxicity against p53-inactive human Jurkat cells at after 18 hrs by erythrosine B dye-exclusion test. Format: cell-based.
A short description of data set [10]: Antioxidant activity assessed as DPPH free radical scavenging activity by UV-vis spectrophotometry. The format is physicochemical. A general note: Loss of DPPH colour is used to gauge radical scavenging.
Data set [11] deals with MOLT-4. Nature of the data set: Inhibition of apoptosis in gamma-irradiated human MOLT4 cells compound treated at 100 to 400 uM for 3 hrs post gamma-irradiation after 18 hrs by erythrosine B dye-exclusion test. Format: functional, cell-based.
In data set [12] the test system is Jurkat. Kind of data set: Radioprotective activity against gamma-irradiated p53-inactive human Jurkat cells at after 18 hrs by erythrosine B dye-exclusion test. Format: functional, cell-based.
The test system of data set [13] is MOLT-4. Nature of the data set: Radioprotective activity against gamma-irradiated human MOLT4 cells preincubated for 1 hr before gamma-irradiation measured after 18 hrs by erythrosine B dye-exclusion test. Format: functional, cell-based.

The source made the active and inactive calls. The rule behind the calls is not given here.

Chain of Cellular tumor antigen p53 (Homo sapiens) (P04637 whole entry, looked up): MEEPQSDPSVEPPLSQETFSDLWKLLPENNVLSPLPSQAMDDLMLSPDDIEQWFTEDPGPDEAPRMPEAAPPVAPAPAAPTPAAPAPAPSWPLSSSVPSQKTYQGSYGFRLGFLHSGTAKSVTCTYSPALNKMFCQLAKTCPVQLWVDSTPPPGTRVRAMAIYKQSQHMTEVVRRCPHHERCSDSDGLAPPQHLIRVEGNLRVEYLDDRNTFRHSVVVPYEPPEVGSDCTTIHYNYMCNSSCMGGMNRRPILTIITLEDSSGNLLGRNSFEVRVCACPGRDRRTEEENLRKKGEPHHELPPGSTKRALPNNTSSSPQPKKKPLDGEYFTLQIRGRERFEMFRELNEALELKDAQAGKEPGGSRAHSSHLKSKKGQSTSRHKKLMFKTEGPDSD

On to `CNS(=O)(=O)c1cc(S(=O)(=O)NC)c2ccc(C)nc2c1OS(C)(=O)=O`, for which the Stability entry in data set [1] was “Unstable”. Also, the Activity result in data set [2] was “Toxic”. Turning to `COc1c(Br)cc(S(=O)(=O)N(C)C)c2ccc(C)nc12`, the Activity result in data set [3] is recorded as “Toxic”. The “apoptosis inhibition (active/inactive)” value in data set [4] is “Active”. `Oc1cccc2cccnc12` [OXYQUINOLINE]: the outcome in [5] was Active. In data set [3], the Activity entry is “Toxic”. Consider `Cc1ccc2c(S(=O)(=O)N3CCCNCC3)cc(S(=O)(=O)N3CCCNCC3)c(O)c2n1`, for which, in data set [6], the outcome was Active. Take `CNS(=O)(=O)c1cc(S(=O)(=O)NC)c2ccc(C)nc2c1OC`: the “apoptosis inhibition (active/inactive)” value in data set [4] was “Active”. In the case of `Cc1ccc2c(S(=O)(=O)N(C)C)cc(S(=O)(=O)N(C)C)c(O)c2n1`, in [3], the Activity result is on record as “Toxic”. For the compound `Cc1ccc2c(S(=O)(=O)N(C)C)ccc(O)c2n1`, the result in data set [6] was Active. In addition, the Activity entry in [3] is on record as “Non-toxic”. Regarding `c1ccc2cnccc2c1`, the outcome in data set [6] was inactive. In the case of `COc1ccc(S(=O)(=O)N(C)C)c2ccc(C)nc12`, the Activity entry in data set [3] is “Non-toxic”. Moreover, the “apoptosis inhibition (active/inactive)” value in data set [4] is “Active”.

With `CN(C)S(=O)(=O)c1ccc(O)c2ncccc12`, the result in data set [6] was Active. In the case of `Cc1ccc2c(S(=O)(=O)N3CCNCC3)cc(S(=O)(=O)N3CCNCC3)c(O)c2n1`, the result in data set [6] was Active. On to `CCOc1c(I)cc(S(=O)(=O)N(C)C)c2ccc(C)nc12`, for which, in data set [3], the Activity result is on record as “Toxic”. For the compound `c1ccc(CN(CCN(Cc2ccccn2)Cc2ccccn2)Cc2ccccn2)nc1`, the result in data set [5] was Active. In the case of `Oc1ccc(Cl)c2ccccc12`, the result in data set [6] was inactive. Still for that read-out and setting: the value for `Oc1cccc2ccccc12` was “inactive”.

For the compound `Oc1ccc(Cl)c2cccnc12` [CLOXYQUIN], the result in data set [5] was Active. In addition, the Activity result in data set [3] is given as “Toxic”.

In the case of `c1ccc2ncccc2c1`, the result in data set [6] was inactive. VITAMIN E: the result in data set [5] was Active. With `CCOc1c(Br)cc(S(=O)(=O)N(C)C)c2ccc(C)nc12`, the Activity entry in data set [3] was “Toxic”. With `Cc1ccc2c(S(N)(=O)=O)cc(S(N)(=O)=O)c(O)c2n1`, the outcome in data set [6] was inactive. Still for that read-out and setting: the entry for `Cc1ccc2c(S(=O)(=O)NCCN)cc(S(=O)(=O)NCCN)c(O)c2n1` is “inactive”. With `CCOc1c(S(=O)(=O)N(C)C)cc(S(=O)(=O)N(C)C)c2ccc(C)nc12`, the “apoptosis inhibition (active/inactive)” value in data set [4] is “Active”.

In the case of `CNS(=O)(=O)c1ccc(OC)c2nc(C)ccc12`, the Activity result in [3] is recorded as “Non-toxic”. In [4], the “apoptosis inhibition (active/inactive)” value was “Active”. For `Cc1ccc2c(S(=O)(=O)N(C)C)cc(Br)c(O)c2n1`, the result in [6] was Active. In addition, in [3], the Activity entry was “Non-toxic”. `c1ccc(CNCCNCc2ccccn2)nc1`: the outcome in data set [5] and in data set [7] was Active. For the compound `CNS(=O)(=O)c1cc(S(=O)(=O)NC)c2ccc(C)nc2c1O`, the inhibition entry in [8] is “inactive”. The Activity entry in data set [9] is “Non-toxic”; in data set [10], “Not Active”; in [13] it was “Dose-dependent effect”; in data set [3], “Non-toxic”. Moreover, the result in data set [7] and in [12] was inactive. Besides, in data set [6], the outcome was Active. For the same compound, the inhibition entry in [11] is “Active”. Consider `CCN(CC)S(=O)(=O)c1cc(S(=O)(=O)N(CC)CC)c2ccc(C)nc2c1OC`, for which the Activity entry in [3] is “Toxic”. Moreover, the “apoptosis inhibition (active/inactive)” value in data set [4] is “Active”. In the case of `CN(C)S(=O)(=O)c1ccc2c(S(=O)(=O)N(C)C)cc(S(=O)(=O)N(C)C)c(O)c2c1`, in data set [6], the result was inactive. On to `O=C1O[C@H]([C@@H](O)CO)C(O)=C1O`, for which the outcome in [5] was Active. In the case of `CN(C)S(=O)(=O)c1cc(Br)c(O)c2ncccc12`, the outcome in [6] was Active. With `CCN(CC)S(=O)(=O)c1cc(S(=O)(=O)N(CC)CC)c2ccc(C)nc2c1O`, the Activity result in data set [3] is on record as “Toxic”.

For `CCOc1c(S(=O)(=O)N(CC)CC)cc(S(=O)(=O)N(CC)CC)c2ccc(C)nc12`, the Activity entry in data set [3] was “Toxic”.

In the case of `COc1c(S(=O)(=O)N(C)C)cc(S(=O)(=O)N(C)C)c2ccc(C)nc12`, the inhibition entry in data set [8] was “inactive”. Also, the Activity result is on record as “Non-toxic” in data set [9], “Not Active” in data set [10] and “Non-toxic” in [3]. The outcome in data set [7] and in data set [12] was inactive. Moreover, the inhibition result in data set [11] is “Active”. The “apoptosis inhibition (active/inactive)” value in data set [4] is “Active”.

In the case of `COc1c(I)cc(S(=O)(=O)N(C)C)c2ccc(C)nc12`, in data set [3], the Activity result was “Toxic”. Further, the “apoptosis inhibition (active/inactive)” value in data set [4] was “Active”. For the compound `CCOc1ccc(S(=O)(=O)N(C)C)c2ccc(C)nc12`, in data set [4], the “apoptosis inhibition (active/inactive)” value is “Active”. With `COc1cc(/C=C/C(=O)CC(=O)/C=C/c2ccc(O)c(OC)c2)ccc1O`, the result in [5] was Active. `CCCNS(=O)(=O)c1cc(S(=O)(=O)NCCC)c2ccc(C)nc2c1O`: in [3], the Activity result was “Toxic”. Take `Cc1ccc2cccc(O)c2n1`: in data set [6], the result was Active. Take `CNS(=O)(=O)c1cc(S(=O)(=O)NC)c2cccnc2c1O`: the result in [5] was inactive. Also, in [6], the outcome was Active. For the same compound, in data set [13], the Activity result was “Dose-dependent effect”.
